Where “and” joins values, the source holds several entries; their conditions need not be identical. Equal entries are not always repeated.
Key:
Design in all cases: species or system rat
[1] = system: T1, TrkA and p75^NTR (PC12 cells); assay: 125I-NGF receptor binding to PC12 cells in the presence of competitor; conditions: compound 50 μM; 125I-NGF 1 nM; 2 h at 4° C.; receptor binding as percentage of binding in absence of competitor
T1 construct: PC12 cells (rat pheochromocytoma cells expressing TrkA and p75^NTR; obtained from ATCC); host or cells: PC12 rat pheochromocytoma cells (intact, in suspension)
T1 sequence (P01139 122-241): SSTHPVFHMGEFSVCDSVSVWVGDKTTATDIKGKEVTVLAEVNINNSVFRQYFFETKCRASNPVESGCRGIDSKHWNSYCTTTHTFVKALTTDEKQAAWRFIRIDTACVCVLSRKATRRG
Experimental: (§1) The radio-iodination and receptor binding of NGF (Sutter et al., 1979) was performed with modifications (Ross et al., 1997) as follows: Evaluation of the ability of NCP compounds to inhibit TrkA and p75^NTR binding was determined by the binding of ^125I-NGF to PC12 cells (rat pheochromocytoma cells expressing TrkA and p75^NTR; obtained from ATCC) and PC12^nnr5 (rat pheochromocytoma cells expressing p75^NTR only; obtained from Dr. L. Greene, Columbia University, NY). The p75^NTR is in a low affinity state and a high affinity state, respectively, in these cell types (Ross et al., 1998). PC12 and PC12^nnr5 cells were grown in RPMI (Sigma) with 10% heat inactivated donor horse serum and 5% fetal calf serum. Cells were harvested by replacing the medium with calcium, magnesium-free balanced salt solution (Gey's solution) and incubating at 37° C. for 15 minutes. Cells were pelleted by centrifugation and suspended in HKR buffer (10 mM Hepes [pH 7.35] containing 125 mM NaCl, 4.8 mM KCl, 1.3 mM CaCl2, 1.2 mM MgSO4, 1.2 mM KH2PO4, 1 g/L glucose and 1 g/L BSA) at a cell concentration of 2×10^6/mL and kept at 4° C. Triplicate tubes were set up for total binding, non-specific binding and binding in the presence of candidate competitor molecule (i.e., a tube for each data point). Each tube contained ^125I-NGF (at 1 nM), 400,000 cells (for a final cell concentration of 10^6/mL) and NGF (50 nM, to define non-specific binding), as required. The tubes were incubated for 2 h at 4° C. and specific binding evaluated by measuring specifically bound DPM (Ross et al., 1997). Data were analysed and the results expressed as receptor binding observed in the presence of competitor (e.g. NCP compounds) as a percentage of receptor binding in the absence of a competitor.

[2] = target: T2, TrkA and p75^NTR (PC12 cells) (Mus musculus, UniProt P01139); assay: as above; conditions: compound 50 μM; 125I-NGF 1 nM; 2 h at 4° C.; average of three values
T2 construct: PC12 cells (rat pheochromocytoma cells expressing TrkA and p75^NTR; obtained from ATCC); host or cells: PC12 rat pheochromocytoma cells (intact, in suspension)
T2 sequence (P01139 122-241): as above
Experimental: as §1

[3] = system: p75^NTR (PC12^nnr5 cells, expressing p75^NTR only); assay: 125I-NGF receptor binding to PC12^nnr5 cells in the presence of competitor; conditions: compound 50 μM, 125I-NGF 1 nM, 2 h at 4° C.; for nnr5 % of Max, Avg: average of three values; for nnr5 % of Max (individual determinations): receptor binding as percentage of binding in absence of competitor
Experimental: as §1

SMILES	PC12 % of Max (individual determinations) [1]	PC12 % of Max, Avg [2]	nnr5 % of Max, Avg [3]	nnr5 % of Max (individual determinations) [3]
O=C(O)CCN1C(=O)c2ccc([N+](=O)[O-])cc2C1=O [Compound 141, 4-nitro-N-(2-carboxyethyl)phthalimide]	74 % of Max and 108 % of Max and 87 % of Max	= 90 % of Max	= 96 % of Max	98 % of Max and 114 % of Max and 77 % of Max
O=C(O)CCCN1C(=O)c2ccc([N+](=O)[O-])cc2C1=O [Compound 142, 4-nitro-N-(3-carboxypropyl)phthalimide]	55 % of Max and 77 % of Max and 67 % of Max	= 66 % of Max	= 51 % of Max	52 % of Max and 51 % of Max (2×)
O=C(O)CCCCN1C(=O)c2ccc([N+](=O)[O-])cc2C1=O [Compound 143, 4-nitro-N-(4-carboxybutyl)phthalimide]	65 % of Max and 97 % of Max and 72 % of Max	= 78 % of Max	= 75 % of Max	76 % of Max and 79 % of Max and 71 % of Max
O=C(O)CCCCCN1C(=O)c2ccc([N+](=O)[O-])cc2C1=O [Compound 144, 4-nitro-N-(5-carboxypentyl)phthalimide]	68 % of Max and 89 % of Max and 77 % of Max	= 78 % of Max	= 73 % of Max	74 % of Max (2×) and 70 % of Max
O=C(O)c1ccc(N2C(=O)c3ccc([N+](=O)[O-])cc3C2=O)cc1 [Compound 145, 4-nitro-N-(p-carboxyphenyl)phthalimide]	60 % of Max and 77 % of Max and 73 % of Max	= 70 % of Max	= 78 % of Max	76 % of Max and 86 % of Max and 71 % of Max
Nc1ccc2c(c1)C(=O)N(c1ccc(C(=O)O)cc1)C2=O [Compound 165, 4-amino-N-(p-carboxyphenyl)phthalimide]	54 % of Max and 53 % of Max and 40 % of Max	= 49 % of Max	= 61 % of Max	61 % of Max and 53 % of Max and 68 % of Max
Nc1ccc2c(c1)C(=O)N(c1cccc(C(=O)O)c1)C2=O [Compound 166, 4-amino-N-(m-carboxyphenyl)phthalimide]	43 % of Max and 58 % of Max and 71 % of Max	= 57 % of Max	= 58 % of Max	55 % of Max and 64 % of Max and 56 % of Max
O=C(O)c1ccc(N2C(=O)c3cccc4cc([N+](=O)[O-])cc(c34)C2=O)cc1 [Compound 205, 3-nitro-N-(p-carboxyphenyl)-1,8-naphthalimide]	16 % of Max and 19 % of Max and 15 % of Max	= 17 % of Max	= 9 % of Max	0 % of Max and 11 % of Max and 15 % of Max
O=C(O)c1cccc(N2C(=O)c3cccc4cc([N+](=O)[O-])cc(c34)C2=O)c1 [Compound 206, 3-nitro-N-(m-carboxyphenyl)-1,8-naphthalimide]	25 % of Max and 29 % of Max and 35 % of Max	= 30 % of Max	= 23 % of Max	20 % of Max and 17 % of Max and 33 % of Max
